Each structure is given as a SMILES string.

The target of assay [1] is T1, human PDE2A3 enzyme (Homo sapiens, UniProt O00408).
T1 construct: Human PDE2A3 full-length gene was transduced into Sf9; His-tag; made in house; host or cells: Sf9 insect cells
Description: PDE Enzyme Inhibitory Assay (SPA, [3H]cGMP substrate). It is filed as biochemical. The note with it: compound 1 μM; [3H]cGMP 77 nM; 60 min at room temperature; read-out: inhibitory rate (%) (1 μM). The procedure:
PDE Enzyme Inhibitory Assay Human PDE2A3 full-length gene was transduced into Sf9, and human PDE2A3 enzyme was purified by His-tag affinity column and gel filtration. The enzyme was stored at −70° C. until use. PDE activity was measured using a SPA (Scintillation Proximity Assay) (GE Healthcare). To evaluate the inhibitory activity of the compound, 10 μl of serial diluted compounds were reacted with 20 μl of PDE enzyme in assay buffer (50 mM HEPES-NaOH, 8.3 mM MgCl2, 1.7 mM EGTA, 0.1% BSA (pH 7.4)) for 30 min. at room temperature. Final concentration of DMSO in the reaction solution was 1 percent. Compounds were tested in duplicate in 96-well half-area plates (Corning) or 384-well OptiPlate (PerkinElmer). To start the reaction, 10 μl of substrate [^3H] cGMP (final concentration 77 nM, PerkinElmer) was added to a total volume of 40 μl. After reaction for 60 min at room temperature, 20 μl of 20 mg/mL yttrium SPA beads containing zinc sulfate was added to terminate the PDE reaction. After being settled for further 1 hour, the assay plates were counted in a scintillation counter (PerkinElmer) to allow calculation of inhibition rate. Inhibition rate was calculated on the basis of 0% control wells with enzyme and DMSO, and 100% control wells without enzyme.

Assay [2] deals with Male C57BL/6 mice. Description: Contextual fear conditioning test, MK-801-induced deficits. It is filed as in vivo. The settings on record: 30 mg/kg p.o. 60 min before test, MK-801 (maleate) 0.08 mg/kg s.c. 30 min before test, n=10, FIG. 1. The procedure: Improvement effect on MK-801 ((5S,10R)-5-methyl-10,11-dihydro-5H-5,10-epiminodibenzo[a,d][7]annulene)-induced disorder in contextual fear conditioning test.
Male C57BL/6 mice were purchased from CLEA Japan, Inc. They were used for an experiment after a habituation period of at least one week after carrying them in the animal experimental facility. They were bred in the animal experimental facility with environment in which 12-hours light-dark cycle was performed, humidity and temperature were controlled, and free water drinking and feeding were allowed. Handling of experimental animals and experimental procedure of this study were approved by the Experimental Animal Ethics Committee of Takeda Pharmaceutical Company Limited.
A test compound was suspended in 0.5% methylcellulose solution at a dose of 30 mg/kg, and orally administered. MK-801 (maleate) (Sigma-Aldrich, St Louis, Mo.) was dissolved in saline at a dose of 0.08 mg/kg, and subcutaneously administered. All drugs were administered to mice at a dose of 10 mL/kg.
Contextual fear conditioning test is widely used as memory and learning test system depending on the hippocampus and amygdala. The improvement effect of test compounds on MK-801-induced deficits was investigated by contextual fear conditioning test. The test compounds and MK-801 (maleate) were administered 60 min and 30 min, respectively, before the test. 0.5% methylcellulose and saline were administered to the control groups 60 min and 30 min, respectively, before the test. 0.5% methylcellulose and MK-801 (maleate) were administered to the vehicle groups 60 min and 30 min, respectively, before the test. […] In the test session on day 2 of the experiment, mice were placed in the same chamber for 7 minutes, and freezing was measured during that period. The freezing was calculated as a percentage of freezing rates during measuring period with use of an automatic analysis software manufactured by the O'Hara & Co., Ltd. All data were shown as the mean+standard error (n=10). […]

T1 sequence (O00408 whole entry): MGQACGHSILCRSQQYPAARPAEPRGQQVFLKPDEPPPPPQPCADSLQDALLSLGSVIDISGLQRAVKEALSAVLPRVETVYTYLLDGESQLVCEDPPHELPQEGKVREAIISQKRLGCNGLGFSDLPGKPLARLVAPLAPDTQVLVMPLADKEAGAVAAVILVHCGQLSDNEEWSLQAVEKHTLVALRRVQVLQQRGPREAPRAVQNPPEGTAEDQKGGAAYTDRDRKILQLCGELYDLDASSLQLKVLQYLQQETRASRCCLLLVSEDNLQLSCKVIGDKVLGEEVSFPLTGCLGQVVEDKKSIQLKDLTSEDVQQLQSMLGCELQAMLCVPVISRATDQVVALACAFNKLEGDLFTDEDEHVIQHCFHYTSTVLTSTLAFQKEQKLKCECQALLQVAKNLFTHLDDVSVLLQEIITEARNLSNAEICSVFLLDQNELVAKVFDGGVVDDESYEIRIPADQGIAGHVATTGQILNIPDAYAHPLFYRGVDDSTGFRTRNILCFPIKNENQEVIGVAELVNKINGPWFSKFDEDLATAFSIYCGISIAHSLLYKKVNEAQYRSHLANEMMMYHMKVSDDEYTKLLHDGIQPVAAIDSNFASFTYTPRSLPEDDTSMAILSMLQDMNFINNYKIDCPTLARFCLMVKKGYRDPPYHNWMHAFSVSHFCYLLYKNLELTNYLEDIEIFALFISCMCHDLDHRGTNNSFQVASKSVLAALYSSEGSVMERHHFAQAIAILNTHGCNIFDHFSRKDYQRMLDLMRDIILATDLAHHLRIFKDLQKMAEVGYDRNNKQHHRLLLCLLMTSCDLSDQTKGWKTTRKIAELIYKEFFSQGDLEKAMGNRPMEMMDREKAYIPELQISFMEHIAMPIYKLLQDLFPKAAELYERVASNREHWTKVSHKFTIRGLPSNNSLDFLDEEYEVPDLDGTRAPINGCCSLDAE

With `Cc1cn(-c2nc3c(C(=O)N[C@@H](c4ccc(OC(F)(F)F)cc4)C(C)(C)O)cnn3cc2C)nn1` [Example 80, N-((1S)-2-hydroxy-2-methyl-1-(4-(trifluoromethoxy)phenyl)propyl)-6-methyl-5-(4-methyl-1H-1,2,3-triazol-1-yl)pyrazolo[1,5-a]pyrimidine-3-carboxamide], in assay [1], the inhibition at 1 µM was determined as 100%. Moreover, the “improvement effect on MK-801-induced deficits in contextual fear conditioning test (freezing)” value in assay [2] is given as “improvement effect on MK-801-induced deficits was shown”.

For the molecule `Cc1ncn(-c2nc3c(C(=O)N[C@@H](c4ccc(OC(F)(F)F)cc4)C(C)(C)O)cnn3cc2C)n1` [Example 161, N-((1S)-2-hydroxy-2-methyl-1-(4-(trifluoromethoxy)phenyl)propyl)-6-methyl-5-(3-methyl-1H-1,2,4-triazol-1-yl)pyrazolo[1,5-a]pyrimidine-3-carboxamide], the inhibition at 1 µM in assay [1] was 100%. In addition, the “improvement effect on MK-801-induced deficits in contextual fear conditioning test (freezing)” value in assay [2] was “improvement effect on MK-801-induced deficits was shown”.

The record behind these values is patent publication US20160159808A1, “HETEROCYCLIC COMPOUND” (TAKEDA PHARMACEUTICAL COMPANY LIMITED, priority 2013, published 2016).
